Measured values: patent US20230085307A1, “PYRIDAZINONE COMPOUND AND HERBICIDE” (NISSAN CHEMICAL CORPORATION, priority 2019, published 2023)

What was measured:
late watergrass = experiment: Test Example 1: herbicidal activity, application before weed generation under submerged conditions (Table 16, symbol A); assay type: in vivo, late watergrass (Echinochloa oryzicola); details: amount of applied herbicide 320 g/ha
Procedure, shortened: (§1)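 Emulsion formulation, water-diluted to set dose, was put onto the flooded surface (4 cm depth, alluvial soil) the same day weeds were sown and 2.5-leaf rice transplanted. After 3 weeks at 25-30 °C under glass, each species was rated 0 (≤5% kill) to 5 (≥90% kill).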

Japanese bulrush = experiment: Test Example 1: herbicidal activity, application before weed generation under submerged conditions (Table 16, symbol B); assay type: in vivo, Japanese bulrush (Schoenoplectus juncoides); details: amount of applied herbicide 320 g/ha
Procedure, shortened: as §1

oval-leafed pondweed = experiment: Test Example 1: herbicidal activity, application before weed generation under submerged conditions (Table 16, symbol C); assay type: in vivo, oval-leafed pondweed (Monochoria vaginalis); details: amount of applied herbicide 320 g/ha
Procedure, shortened: as §1

barnyard grass [1] = experiment: Test Example 3: herbicidal effect by foliage application, Wagner pot (Table 18, symbol H); assay type: in vivo, barnyard grass (Echinochloa crus-galli); details: 320 g/ha
Procedure, shortened: (§2)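 Plants were sown in alluvial soil held under 0.1–0.5 cm standing water and grown 14 days in a greenhouse at 25–30 °C. An emulsifiable formulation, water-diluted to the set dose, was then sprayed onto the foliage, and effects were scored three weeks later using previously defined criteria.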

Chinese sprangletop = experiment: Test Example 3: herbicidal effect by foliage application, Wagner pot (Table 18, symbol D); assay type: in vivo, chinese sprangletop (Leptochloa chinensis); details: 320 g/ha
Procedure, shortened: as §2

rice flat sedge = experiment: Test Example 3: herbicidal effect by foliage application, Wagner pot (Table 18, symbol E); assay type: in vivo, rice flat sedge (Cyperus iria); details: 320 g/ha
Procedure, shortened: as §2

southern crabgrass [2] = experiment: Test Example 4: herbicidal effect by soil treatment (Table 19, symbol F); assay type: in vivo, southern crabgrass (Digitaria ciliaris); details: amount of applied herbicide 320 g/ha
Procedure, shortened: (§3)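 Scoring uses the grading scale of an earlier test, three weeks post-application. Treatment consists of spraying a diluted emulsion formulation across the surface of sterilized diluvial soil in which seeds are buried near 1.5 cm deep; boxes are kept in a greenhouse between 25° C. and 30° C.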

green foxtail [3] = experiment: Test Example 4: herbicidal effect by soil treatment (Table 19, symbol G); assay type: in vivo, green foxtail (Setaria viridis); details: amount of applied herbicide 320 g/ha
Procedure, shortened: as §3

barnyard grass [4] = experiment: Test Example 4: herbicidal effect by soil treatment (Table 19, symbol H); assay type: in vivo, barnyard grass (Echinochloa crus-galli); details: amount of applied herbicide 320 g/ha
Procedure, shortened: as §3

wild oat [5] = experiment: Test Example 4: herbicidal effect by soil treatment (Table 19, symbol I); assay type: in vivo, wild oat (Avena fatua); details: amount of applied herbicide 320 g/ha
Procedure, shortened: as §3

blackgrass [6] = experiment: Test Example 4: herbicidal effect by soil treatment (Table 19, symbol J); assay type: in vivo, blackgrass (Alopecurus myosuroides); details: amount of applied herbicide 320 g/ha
Procedure, shortened: as §3

Italian ryegrass [7] = experiment: Test Example 4: herbicidal effect by soil treatment (Table 19, symbol K); assay type: in vivo, Italian ryegrass (Lolium multiflorum); details: amount of applied herbicide 320 g/ha
Procedure, shortened: as §3

windgrass [8] = experiment: Test Example 4: herbicidal effect by soil treatment (Table 19, symbol L); assay type: in vivo, windgrass (Apera spica-venti); details: amount of applied herbicide 320 g/ha
Procedure, shortened: as §3

velvetleaf [9] = experiment: Test Example 4: herbicidal effect by soil treatment (Table 19, symbol M); assay type: in vivo, velvetleaf (Abutilon theophrasti); details: amount of applied herbicide 320 g/ha
Procedure, shortened: as §3

redroot pigweed [10] = experiment: Test Example 4: herbicidal effect by soil treatment (Table 19, symbol N); assay type: in vivo, redroot pigweed (Amaranthus retroflexus); details: amount of applied herbicide 320 g/ha
Procedure, shortened: as §3

lambsquarters [11] = experiment: Test Example 4: herbicidal effect by soil treatment (Table 19, symbol O); assay type: in vivo, lambsquarters (Chenopodium album); details: amount of applied herbicide 320 g/ha
Procedure, shortened: as §3

chickweed [12] = experiment: Test Example 4: herbicidal effect by soil treatment (Table 19, symbol P); assay type: in vivo, common chickweed (Stellaria media); details: amount of applied herbicide 320 g/ha
Procedure, shortened: as §3

persian speedwell [13] = experiment: Test Example 4: herbicidal effect by soil treatment (Table 19, symbol R); assay type: in vivo, Persian speedwell (Veronica persica); details: amount of applied herbicide 320 g/ha
Procedure, shortened: as §3

southern crabgrass [14] = experiment: Test Example 5: herbicidal effect by foliage application, plastic box (Table 20, symbol F); assay type: in vivo, southern crabgrass (Digitaria ciliaris); details: amount of applied herbicide 320 g/ha; foliage application after 14-day growth; evaluated three weeks after application
Procedure, shortened: (§4)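 Post-emergence foliar test in sterilized diluvial soil. Compound applied as water-diluted emulsion at a predetermined rate to 14-day-old plants; evaluation at three weeks.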

green foxtail [15] = experiment: Test Example 5: herbicidal effect by foliage application, plastic box (Table 20, symbol G); assay type: in vivo, green foxtail (Setaria viridis); details: amount of applied herbicide 320 g/ha; foliage application after 14-day growth; evaluated three weeks after application
Procedure, shortened: as §4

barnyard grass [16] = experiment: Test Example 5: herbicidal effect by foliage application, plastic box (Table 20, symbol H); assay type: in vivo, barnyard grass (Echinochloa crus-galli); details: amount of applied herbicide 320 g/ha; foliage application after 14-day growth; evaluated three weeks after application
Procedure, shortened: as §4

wild oat [17] = experiment: Test Example 5: herbicidal effect by foliage application, plastic box (Table 20, symbol I); assay type: in vivo, wild oat (Avena fatua); details: amount of applied herbicide 320 g/ha; foliage application after 14-day growth; evaluated three weeks after application
Procedure, shortened: as §4

blackgrass [18] = experiment: Test Example 5: herbicidal effect by foliage application, plastic box (Table 20, symbol J); assay type: in vivo, blackgrass (Alopecurus myosuroides); details: amount of applied herbicide 320 g/ha; foliage application after 14-day growth; evaluated three weeks after application
Procedure, shortened: as §4

Italian ryegrass [19] = experiment: Test Example 5: herbicidal effect by foliage application, plastic box (Table 20, symbol K); assay type: in vivo, Italian ryegrass (Lolium multiflorum); details: amount of applied herbicide 320 g/ha; foliage application after 14-day growth; evaluated three weeks after application
Procedure, shortened: as §4

windgrass [20] = experiment: Test Example 5: herbicidal effect by foliage application, plastic box (Table 20, symbol L); assay type: in vivo, windgrass (Apera spica-venti); details: amount of applied herbicide 320 g/ha; foliage application after 14-day growth; evaluated three weeks after application
Procedure, shortened: as §4

velvetleaf [21] = experiment: Test Example 5: herbicidal effect by foliage application, plastic box (Table 20, symbol M); assay type: in vivo, velvetleaf (Abutilon theophrasti); details: amount of applied herbicide 320 g/ha; foliage application after 14-day growth; evaluated three weeks after application
Procedure, shortened: as §4

redroot pigweed [22] = experiment: Test Example 5: herbicidal effect by foliage application, plastic box (Table 20, symbol N); assay type: in vivo, redroot pigweed (Amaranthus retroflexus); details: amount of applied herbicide 320 g/ha; foliage application after 14-day growth; evaluated three weeks after application
Procedure, shortened: as §4

lambsquarters [23] = experiment: Test Example 5: herbicidal effect by foliage application, plastic box (Table 20, symbol O); assay type: in vivo, lambsquarters (Chenopodium album); details: amount of applied herbicide 320 g/ha; foliage application after 14-day growth; evaluated three weeks after application
Procedure, shortened: as §4

chickweed [24] = experiment: Test Example 5: herbicidal effect by foliage application, plastic box (Table 20, symbol P); assay type: in vivo, common chickweed (Stellaria media); details: amount of applied herbicide 320 g/ha; foliage application after 14-day growth; evaluated three weeks after application
Procedure, shortened: as §4

false cleavers = experiment: Test Example 5: herbicidal effect by foliage application, plastic box (Table 20, symbol Q); assay type: in vivo, false cleavers (Galium spurium); details: amount of applied herbicide 320 g/ha; foliage application after 14-day growth; evaluated three weeks after application
Procedure, shortened: as §4

persian speedwell [25] = experiment: Test Example 5: herbicidal effect by foliage application, plastic box (Table 20, symbol R); assay type: in vivo, Persian speedwell (Veronica persica); details: amount of applied herbicide 320 g/ha; foliage application after 14-day growth; evaluated three weeks after application
Procedure, shortened: as §4

Cc1nn(C)c(=O)c(-c2c(-c3ccc(F)cc3)sc3cc(F)c(F)cc23)c1O [5-001]
Herbicidal effect, A: late watergrass (late watergrass): 3 (Herbicidal rate of 40% or more and less than 70%) | Herbicidal effect, B: Japanese bulrush (Japanese bulrush): 1 (Herbicidal rate of 5% or more and less than 20%) | Herbicidal effect, C: oval-leafed pondweed (oval-leafed pondweed): 0 (Herbicidal rate of 5% or less (almost no effect)) | herbicidal effect on barnyard grass (H) (barnyard grass [1]): 4 (Herbicidal rate of 70% or more and less than 90%) | herbicidal effect on Chinese sprangletop (D) (Chinese sprangletop): 3 (Herbicidal rate of 40% or more and less than 70%) | herbicidal effect on rice flat sedge (E) (rice flat sedge): 5 (Herbicidal rate of 90% or more (almost completely withered)) | F: southern crabgrass, herbicidal effect grade (southern crabgrass [2]): 5 (Herbicidal rate of 90% or more (almost completely withered)) | G: green foxtail, herbicidal effect grade (green foxtail [3]): 5 (Herbicidal rate of 90% or more (almost completely withered)) | H: barnyard grass, herbicidal effect grade (barnyard grass [4]): 0 (Herbicidal rate of 5% or less (almost no effect)) | I: wild oat, herbicidal effect grade (wild oat [5]): 3 (Herbicidal rate of 40% or more and less than 70%) | J: blackgrass, herbicidal effect grade (blackgrass [6]): 4 (Herbicidal rate of 70% or more and less than 90%) | K: Italian ryegrass, herbicidal effect grade (Italian ryegrass [7]): 5 (Herbicidal rate of 90% or more (almost completely withered)) | L: windgrass, herbicidal effect grade (windgrass [8]): 5 (Herbicidal rate of 90% or more (almost completely withered)) | M: velvetleaf, herbicidal effect grade (velvetleaf [9]): 4 (Herbicidal rate of 70% or more and less than 90%) | N: redroot pigweed, herbicidal effect grade (redroot pigweed [10]): 5 (Herbicidal rate of 90% or more (almost completely withered)) | O: lambsquarters, herbicidal effect grade (lambsquarters [11]): 5 (Herbicidal rate of 90% or more (almost completely withered)) | P: chickweed, herbicidal effect grade (chickweed [12]): 4 (Herbicidal rate of 70% or more and less than 90%) | R: persian speedwell, herbicidal effect grade (persian speedwell [13]): 5 (Herbicidal rate of 90% or more (almost completely withered)) | Herbicidal effect by foliage application, F: southern crabgrass (southern crabgrass [14]): 5 (Herbicidal rate of 90% or more (almost completely withered)) | Herbicidal effect by foliage application, G: green foxtail (green foxtail [15]): 5 (Herbicidal rate of 90% or more (almost completely withered)) | Herbicidal effect by foliage application, H: barnyard grass (barnyard grass [16]): 4 (Herbicidal rate of 70% or more and less than 90%) | Herbicidal effect by foliage application, I: wild oat (wild oat [17]): 4 (Herbicidal rate of 70% or more and less than 90%) | Herbicidal effect by foliage application, J: blackgrass (blackgrass [18]): 4 (Herbicidal rate of 70% or more and less than 90%) | Herbicidal effect by foliage application, K: Italian ryegrass (Italian ryegrass [19]): 5 (Herbicidal rate of 90% or more (almost completely withered)) | Herbicidal effect by foliage application, L: windgrass (windgrass [20]): 5 (Herbicidal rate of 90% or more (almost completely withered)) | Herbicidal effect by foliage application, M: velvetleaf (velvetleaf [21]): 5 (Herbicidal rate of 90% or more (almost completely withered)) | Herbicidal effect by foliage application, N: redroot pigweed (redroot pigweed [22]): 5 (Herbicidal rate of 90% or more (almost completely withered)) | Herbicidal effect by foliage application, O: lambsquarters (lambsquarters [23]): 5 (Herbicidal rate of 90% or more (almost completely withered)) | Herbicidal effect by foliage application, P: chickweed (chickweed [24]): 5 (Herbicidal rate of 90% or more (almost completely withered)) | Herbicidal effect by foliage application, Q: false cleavers (false cleavers): 5 (Herbicidal rate of 90% or more (almost completely withered)) | Herbicidal effect by foliage application, R: persian speedwell (persian speedwell [25]): 5 (Herbicidal rate of 90% or more (almost completely withered))
